# Assay results reported in ChEMBL document CHEMBL1157111, “Oridamycins A and B, anti-Saprolegnia parasitica indolosesquiterpenes isolated from Streptomyces sp. KS84” (2010).
# Calls of active or inactive are those of the source. The calls are words filed in the database; no cut-off is given here.
# Columns and labels:
# Phoma = assay: Antifungal activity against Phoma CCF3818 assessed as inhibition of hyphae elongation after 24 hrs; type: functional; details: CCF3818, 24 h
# Saprolegnia parasitica = assay: Antifungal activity against Saprolegnia parasitica assessed as inhibition of hyphae elongation after 24 hrs; type: functional
# Saccharomyces cerevisiae = assay: Antifungal activity against Saccharomyces cerevisiae at 1000 ug/ml after 24 hrs; type: functional, organism-based
MIC (Saprolegnia parasitica) [µg/mL],MIC (Saccharomyces cerevisiae),SMILES,MIC (Phoma) [µg/mL]
,,C[C@@H]1C[C@@H]([C@H](O)CC2CC(=O)NC(=O)C2)C(=O)[C@@H](C)C1 [CYCLOHEXIMIDE],25
3,inactive,C[C@]1(C(=O)O)[C@@H](O)CC[C@]2(C)c3cc4c(cc3CC[C@@H]12)[nH]c1ccccc14 [ORIDAMYCIN A],242
